These results are taken from patent US10647680B2, “Urea compound, preparation method therefor and medical use thereof” (Ancureall Pharmaceutical (Shanghai) Co., Ltd., priority 2016, dated 2020).

Test [1] deals with SH-SY5Y (expressing ALK F1174L mutant protein). Briefly: In vitro growth inhibition (GI50), SH-SY5Y. It counts as cell-based. Conditions: Homo sapiens. The text has this:
Tumor cell line is an effective cell model for studying the inhibition of tumor cell growth or proliferation in vitro. In the present invention, a representative tumor cell line was selected to determine the cell growth inhibition activity of the present compound. All cell lines used were from ATCC, DSMZ, and the Cell Bank of the Chinese Academy of Sciences. Cell culture conditions and methods were in accordance with the requirements of each cell line. Cells were subcultured in vitro for no more than 3 passages each time, and as required, single-clone purification and identification of cell lines could be carried out.
The cell culture media used were RPMI1640 (Gibco), MEM (Gibco), McCOY'S5A (Gibco), and IMDM (Gibco). The complete medium was prepared by supplement with 5˜20% fetal calf serum (Gibco), 1% double-antibiotics (10000 units/mL penicillin and 10000 units/mL), 2 mM glutamine or 1 mM sodium pyruvate, respectively.
(§1) Human non-small cell lung cancer cell line NCI-H2228 (expressing EML4-ALK fusion gene, ATCC) and human anaplastic large cell lymphoma cell line Karpas-299 (expressing NPM-ALK fusion gene, ATCC) were cultured in complete medium comprising 1×RPMI1640 (10% FBS), respectively. Neuroblastoma cell line SH-SY5Y (expressing ALK F1174L mutant protein, Shanghai Cell Bank, Chinese Academy of Sciences) was cultured in MEM complete medium (1×MEM, 10% FBS, 1% NEAA, 1 mM sodium pyruvate).
(§2) Adherent cells were digested with 0.25% pancreatin-EDTA (Gibco). The suspension cells were collected by centrifugation. The supernatant was discarded and the cell pellet was resuspended and counted. Different cell concentrations (5˜10×10^4 cells/mL) were prepared according to the growth cycle of each cell line and then seeded on a 96-well plate (Corning), 100 μL/well. The cells were incubated overnight at 37° C., 5% CO2. The compounds were added to the cells on the second day with 2 wells in parallel. The final concentration of organic solvent shall not exceed 1%. The cells were continually incubated for 3 to 5 days, and then subjected to MTT assay.
(§3) The compound of the present invention and the control compound were dissolved in DMSO (Sigma) respectively, with the purity of more than 98%. The compound was stored in a concentration of 10 mM at −20° C. and diluted to 2- or 10-fold series prior to use.
Dojindo CCK8 reagent kit was used as MTT assay. THERMO […] FC meter was used as microplate reader.
For adherent cells, culture medium was removed and immediately replaced with the fresh prepared medium which contains 10% CCK8 reagent (100 μL/well). For the suspension cells, CCK8 was directly added to 10% of the final concentration. The cells were continually incubated for 1˜4 h. When a dark yellow color could be observed in the solvent control wells, the absorbance value at OD450 nm was measured and the cell growth rate was calculated according to the following formula: Cell Growth Rate (%)=100*(T−T0)/(C−T0) T=optical density of drug treatment cell well—optical density of blank control well; T0=optical density of cell well before drug treatment—optical density of blank control well; C=optical density of cell well of solvent control group—optical density of blank control well. The concentration value of 50% inhibition of cell growth (GI50) was calculated according to the drug concentration and cell growth rate curve. The experiment was independently repeated 1˜3 times, and subject to biological statistical analysis. 4. Experimental Results
Tumor cell growth inhibition test was performed by selecting representative compounds (compounds 4, 11, 12, 16, 27, 68, 71, 77, 79, 89 and 116 of the present invention). The initial concentration of the compound was 5,000 nM, then it was serially diluted by 2-fold or 10-fold to 0.01 nM. The GI50 value of each test compound was calculated according to the GI50 assay and calculation method. The experiments were repeated 1 to 3 times, and data were subjected to biological statistical analysis.

Test [2] concerns tumor cells with abnormal expressions of EGFR, HER2/ERBB2, FGFR1, RAS, BRAF, cMET, and ALK genes. Put plainly: In vitro growth inhibition of different tumor cells (summary over the panel). It counts as cell-based, human. Conditions: GI50 value in the micro-molar range.
Excerpt: Human epidermal cancer cell line A431 (EGFR WT, amplification and high expression, from Shanghai Cell Bank of Chinese Academy of Sciences and ATCC), human lung cancer cell line NCI-H292 (EGFR WT, purchased from Shanghai Cell Bank of Chinese Academy of Sciences), NSCLC cell lines PC-9 and HCC827 (EGFR exon19 E746-A750 deletion, two cell lines are sensitive to the first-generation EGFR PTK inhibitor), NSCLC cell line NCI-H1975 (EGFR L858R/T790M and the first-generation EGFR inhibitor resistance, ATCC) were cultured with 1×RPMI1640 complete medium (supplement with 10% FBS), respectively.
Human gastric cancer cell line NCI-N87 (HER2/ErbB2 amp, ATCC), human breast cancer cell line HCC1954 (HER2/ErbB2 amp, ATCC) and ZR-75-30 (HER2/ErbB2 amp, ATCC), human adenocarcinoma cell line AU565 (HER2/ErbB2 amp, ATCC), human lung squamous cell carcinoma cell line NCI-H2170 (HER2/ErbB2 amp, ATCC), human bronchioalveolar adenocarcinoma cell line NCI-H1781 (HER2/ErbB2 Ins G776V,C mutant type, ATCC) were cultured with a 1×RPMI1640 complete medium (10% FBS), respectively. Human lung adenocarcinoma cell line Calu-3 (HER2/ErbB2 amp, ATCC) was cultured with 1×MEM, 10% FBS, 1% double antibody, 1% NEAA (Gibco), 2 mM glutamine and 1 mM sodium pyruvate. The human breast cancer cell line SK-BR-3 (HER2/ErbB2 amp, ATCC) was cultured with a McCOY'S5A complete medium (10% FBS).
The human gastric cancer cell line MKN-45 (c-MET amp, ATCC) and the non-small cell lung cancer cell line NCI-H1993 (c-MET amp, ATCC) were cultured in complete medium comprising 1×RPMI1640 and 10% FBS, respectively.
as §1
Human non-small cell lung cancer cell NCI-H1581 (FGFR1 amp, ATCC) is an FGFR1 gene amplified/overexpressed tumor cell line. It was cultured in complete medium comprising 1×RPMI1640 with 10% FBS.
Human large cell lung cancer cell NCI-H460 (KRAS […] mutant type, ATCC), human non-small cell lung cancer cell line H1299 (NRAS Q61K mutant type, ATCC), human melanoma cell line A375 (BRAF V600E mutant type, Shanghai Cell Bank of Chinese Academy of Sciences), human colon cancer cell line HCT116 (KRAS G13D mutant type, Shanghai Cell Bank, Chinese Academy of Sciences) were cultured in a complete medium of 1×RPMI1640 (10% FBS), respectively. Human non-small cell lung cancer cells A549 (KRAS G12S mutant type, Shanghai Cell Bank, Chinese Academy of Sciences) were cultured in a complete medium of 1× Ham's supplemented with 10% FBS, 1% double antibody, and 2 mM glutamine.
as §2, §3
Dojindo CCK8 reagent kit was used as MTT assay. THERMO […] FC meter was used as microplate reader. […]

With `CC(C)(C)c1cc(NC(=O)Nc2ccc(-n3cnc4cc(O)ccc43)cc2)no1` [Compound 4, 1-(5-tert-butyl-isoxazol-3-yl)-3-[4-(5-hydroxy-benzimidazol-1-yl)-phenyl]-urea], in test [1], the GI50 (in general, the concentration at which growth is held to half of that of the control) was over 2500 nM. Molecule `CC(C)(C)c1cc(NC(=O)Nc2ccc(-n3cnc4cc(OCCO)ccc43)cc2)no1` [Compound 11, 1-(5-tert-butyl-isoxazol-3-yl)-3-{4-[5-(2-hydroxy-ethoxyl)-benzimidazol-1-yl]-phenyl]-urea] gave a GI50 in test [1] of over 2500 nM. `CC(C)(C)c1cc(NC(=O)Nc2ccc(-n3cnc4cc(OCCN5CCOCC5)ccc43)cc2)no1` [Compound 16, 1-(5-tert-butyl-isoxazol-3-yl)-3-{4-[5-(2-morpholin-4-yl-ethoxyl)-benzimidazol-1-yl]-phenyl}-urea] returned a GI50 in test [1] of over 2500 nM. Further, the “inhibition effect on growth of tumor cells with abnormal expressions of EGFR, HER2/ERBB2, FGFR1, RAS, BRAF, cMET, and ALK genes” value in test [2] was “no significant inhibition effect”.

Molecule `CC(C)(C)c1cc(NC(=O)Nc2ccc(-n3cnc4ccc(OCCN5CCOCC5)cc43)cc2)no1` [Compound 27, 1-(5-tert-butyl-isoxazol-3-yl)-3-{4-[6-(2morpholin-4-yl-ethoxyl)-benzimidazol-1-yl]-phenyl}-urea] had a GI50 in test [1] of over 2500 nM. In addition, the “inhibition effect on growth of tumor cells with abnormal expressions of EGFR, HER2/ERBB2, FGFR1, RAS, BRAF, cMET, and ALK genes” value in test [2] was “no significant inhibition effect”. The molecule `CC(C)(C)c1cc(NC(=O)Nc2ccc(-n3cnc4ccccc43)cc2)[nH]n1` [Compound 68, 1-(4-benzimidazol-1-yl-phenyl)-3-(5-tert-butyl-2H-pyrazol-3-yl)-urea] had a GI50 in test [1] of over 2500 nM. Further, the “inhibition effect on growth of tumor cells with abnormal expressions of EGFR, HER2/ERBB2, FGFR1, RAS, BRAF, cMET, and ALK genes” value in test [2] is listed as “no significant inhibition effect”. In test [1], `COc1ccc2c(c1)ncn2-c1ccc(NC(=O)Nc2cc(C(C)(C)C)n[nH]2)cc1` [Compound 71, 1-(5-tert-butyl-2H-pyrazol-3-yl)-3-[4-(5-methoxyl-benzimidazol-1-yl)-phenyl]-urea] gave a GI50 of over 2500 nM. Moreover, the “inhibition effect on growth of tumor cells with abnormal expressions of EGFR, HER2/ERBB2, FGFR1, RAS, BRAF, cMET, and ALK genes” value in test [2] is “no significant inhibition effect”. The matching figures for `COCCOc1ccc2c(c1)ncn2-c1ccc(NC(=O)Nc2cc(C(C)(C)C)n[nH]2)cc1` [Compound 77, 1-(5-tert-butyl-2H-pyrazol-3-yl)-3-{4-[5-(2-methoxyl-ethoxyl)-benzimidazol-1-yl]-phenyl}-urea]: over 2500 nM and “no significant inhibition effect”. In test [1], `CC(C)(C)c1cc(NC(=O)Nc2ccc(-n3cnc4cc(OCCO)ccc43)cc2)[nH]n1` [Compound 79, 1-(5-tert-butyl-2H-pyrazol-3-yl)-3-{4-[5-(2-hydroxy-ethoxyl)-benzimidazol-1-yl]-phenyl]urea] displayed a GI50 of over 2500 nM.

In turn, `CC(C)(C)c1cc(NC(=O)Nc2ccc(-n3cnc4cc(OCCN5CCOCC5)ccc43)cc2)[nH]n1` [Compound 89, 1-(5-tert-butyl-2H-pyrazol-3-yl)-3-{4-[5-(2-morpholin-4-yl-ethoxyl)-benzimidazol-1-yl]-phenyl}-urea] came in with a GI50 in test [1] of over 2500 nM. Besides, the “inhibition effect on growth of tumor cells with abnormal expressions of EGFR, HER2/ERBB2, FGFR1, RAS, BRAF, cMET, and ALK genes” value in test [2] is on record as “no significant inhibition effect”. `CC(C)(C)c1cc(N)n(C(=O)Nc2ccc(-n3cnc4ccccc43)cc2)n1` [Compound 116, 5-amino-3-tert-butyl-pyrazol-1-carboxylic acid (4-benzimidazol-1-yl-phenyl)-amide] registered a GI50 in test [1] of over 2500 nM. The “inhibition effect on growth of tumor cells with abnormal expressions of EGFR, HER2/ERBB2, FGFR1, RAS, BRAF, cMET, and ALK genes” value in test [2] is recorded as “no significant inhibition effect”.
